In the supplement of paper PMC10307832:

How the values were obtained:
Test in all cases: relative viability (nuclei count vs DMSO), 5 days (fraction); higher = more cells survive
FH535 + Palbociclib = compound: CC1=C(C=CC(=C1)[N+](=O)[O-])NS(=O)(=O)C2=C(C=CC(=C2)Cl)Cl [FH535] + CC(=O)c1c(C)c2cnc(Nc3ccc(N4CCNCC4)cn3)nc2n(C2CCCC2)c1=O [Palbociclib] (partner 0.5 µM)
How it was run: (§1)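 Lung cancer cell lines were seeded in 1536-well plates and dosed by pin tool the next day, with either a single drug or a fixed anchor-drug dose combined with five library-drug doses (not always all listed) spaced in √10 steps. Five days later, one step fixed the cells and stained their nuclei (final 0.05% Triton X-100, 1% formaldehyde, 1 ug/ml Hoechst), and nuclei were counted on 4× images. Relative viability is the nuclei count in treated wells divided by the count in vehicle wells, and each value is the median of duplicate plates.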

FH535 + Bortezomib = compound: CC1=C(C=CC(=C1)[N+](=O)[O-])NS(=O)(=O)C2=C(C=CC(=C2)Cl)Cl [FH535] + CC(C)C[C@H](NC(=O)[C@H](Cc1ccccc1)NC(=O)c1cnccn1)B(O)O [Bortezomib] (partner 0.002 µM)
How it was run: as §1

FH535 + Foretinib = compound: CC1=C(C=CC(=C1)[N+](=O)[O-])NS(=O)(=O)C2=C(C=CC(=C2)Cl)Cl [FH535] + COc1cc2c(Oc3ccc(NC(=O)C4(C(=O)Nc5ccc(F)cc5)CC4)cc3F)ccnc2cc1OCCCN1CCOCC1 [Foretinib] (partner 0.25 µM)
How it was run: as §1

FH535 + Pemetrexed = compound: CC1=C(C=CC(=C1)[N+](=O)[O-])NS(=O)(=O)C2=C(C=CC(=C2)Cl)Cl [FH535] + Nc1nc2[nH]cc(CCc3ccc(C(=O)N[C@@H](CCC(=O)O)C(=O)O)cc3)c2c(=O)[nH]1 [Pemetrexed] (partner 0.2 µM)
How it was run: as §1

FH535 + Decitabine = compound: CC1=C(C=CC(=C1)[N+](=O)[O-])NS(=O)(=O)C2=C(C=CC(=C2)Cl)Cl [FH535] + Nc1ncn([C@H]2C[C@H](O)[C@@H](CO)O2)c(=O)n1 [Decitabine] (partner 2 µM)
How it was run: as §1

Row | Cell Line | relative viability (FH535 + Palbociclib; first compound 0.04 µM) | relative viability (FH535 + Palbociclib; first compound 0.1265 µM) | relative viability (FH535 + Palbociclib; first compound 0.4 µM) | relative viability (FH535 + Palbociclib; first compound 1.265 µM) | relative viability (FH535 + Bortezomib; first compound 0.04 µM) | relative viability (FH535 + Bortezomib; first compound 0.1265 µM) | relative viability (FH535 + Bortezomib; first compound 0.4 µM) | relative viability (FH535 + Bortezomib; first compound 1.265 µM) | relative viability (FH535 + Foretinib; first compound 0.04 µM) | relative viability (FH535 + Foretinib; first compound 0.1265 µM) | relative viability (FH535 + Foretinib; first compound 0.4 µM) | relative viability (FH535 + Foretinib; first compound 1.265 µM) | relative viability (FH535 + Pemetrexed; first compound 0.04 µM) | relative viability (FH535 + Pemetrexed; first compound 0.1265 µM) | relative viability (FH535 + Pemetrexed; first compound 0.4 µM) | relative viability (FH535 + Pemetrexed; first compound 1.265 µM) | relative viability (FH535 + Decitabine; first compound 0.04 µM) | relative viability (FH535 + Decitabine; first compound 0.1265 µM) | relative viability (FH535 + Decitabine; first compound 0.4 µM) | relative viability (FH535 + Decitabine; first compound 1.265 µM)
1 | HCC-78 | 0.487 | 0.512 | 0.458 | 0.425 | 0.475 | 0.471 | 0.593 | 0.434 | 0.565 | 0.561 | 0.608 | 0.51 | 0.837 | 0.868 | 0.904 | 0.871 | 0.541 | 0.673 | 0.573 | 0.529
2 | HCC-366 | 0.418 | 0.412 | 0.37 | 0.296 | 1.1 | 1.12 | 0.987 | 0.925 | 0.648 | 1.06 | 0.958 | 0.516 | 0.169 | 0.134 | 0.174 | 0.159 | 0.308 | 0.342 | 0.335 | 0.293
3 | HCC-827 | 0.501 | 0.479 | 0.489 | 0.332 | 1.01 | 0.953 | 1.04 | 0.849 | 1.03 | 1.07 | 0.975 | 0.587 | 0.237 | 0.246 | 0.216 | 0.263 | 0.297 | 0.334 | 0.323 | 0.296
4 | HOP-62 | 0.481 | 0.462 | 0.456 | 0.393 | 0.579 | 0.949 | 0.768 | 0.682 | 1.06 | 1.04 | 1.03 | 0.933 | 0.322 | 0.267 | 0.345 | 0.35 | 0.232 | 0.196 | 0.23 | 0.227
5 | IA-LM |  |  |  |  | 0.89 | 0.799 | 0.747 | 0.47 | 1.21 | 1.21 | 1.08 | 0.701 |  |  |  |  |  |  |  | 
6 | LK-2 | 0.624 | 0.578 | 0.553 | 0.593 |  |  |  |  | 1.23 | 1.33 | 1.39 | 1.11 | 0.271 | 0.288 | 0.278 | 0.307 | 0.254 | 0.26 | 0.298 | 0.286
7 | NCI-H358 | 0.121 | 0.129 | 0.129 | 0.134 |  |  |  |  | 0.647 | 0.727 | 0.63 | 0.481 | 0.178 | 0.16 | 0.169 | 0.16 | 0.151 | 0.219 | 0.205 | 0.182
8 | NCI-H522 | 0.984 | 0.936 | 0.945 | 0.701 |  |  |  |  |  |  |  |  | 0.847 | 1.01 | 0.994 | 1.08 | 0.588 | 0.697 | 0.712 | 0.698
9 | NCI-H596 |  |  |  |  | 0.915 | 1.09 | 1.19 | 0.952 | 0.833 | 0.899 | 0.852 | 0.819 | 0.499 | 0.507 | 0.454 | 0.507 | 0.983 | 1.06 | 1 | 0.976
